{"source": "patent US20250074920A1", "about": "“MACROCYCLIC COMPOUNDS AND USE AS KINASE INHIBITORS” (BLOSSOMHILL THERAPEUTICS, INC., priority 2022, published 2025)", "experiment_in_all_cases": "KINOMEscan kinase binding assay", "key": {"FRK": {"system": "FRK", "conditions": "at 1 μM", "method_in_brief": "(§1)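 KINOMEscan competition assay. T7-phage kinase fusions (E. coli lysates) or DNA-tagged HEK-293 kinases; immobilized biotinylated ligand on beads; 1 h RT incubation; qPCR detection of bound kinase. Output: % Ctrl or Kd.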"}, "TNK2": {"system": "TNK2", "conditions": "at 1 μM", "method_in_brief": "as §1"}, "ABL1-nonphosphorylated": {"system": "ABL1-nonphosphorylated", "conditions": "at 1 μM", "method_in_brief": "as §1"}, "[1]": {"system": "EGFR(L747-E749del, A750P)", "conditions": "at 1 μM", "method_in_brief": "as §1"}, "RET(V804L)": {"system": "RET(V804L)", "conditions": "at 1 μM", "method_in_brief": "as §1"}, "EPHA4": {"system": "EPHA4", "conditions": "at 1 μM", "method_in_brief": "(§2)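 Competition binding format: a test compound at a single concentration displaces phage-tagged or DNA-tagged kinase from an immobilized affinity ligand. After washing, kinase is released with 0.5 μM free ligand (30 min, room temperature) and measured by qPCR. Data are given as % Ctrl.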"}, "ALK(L1196M)": {"system": "ALK(L1196M)", "conditions": "at 1 μM", "method_in_brief": "as §1"}, "MET(M1250T)": {"system": "MET(M1250T)", "conditions": "at 1 μM", "method_in_brief": "as §1"}, "FGR": {"system": "FGR", "conditions": "at 1 μM", "method_in_brief": "as §1"}, "BRK": {"system": "BRK", "conditions": "at 1 μM", "method_in_brief": "as §1"}, "YES": {"system": "YES", "conditions": "at 1 μM", "method_in_brief": "as §1"}, "[2]": {"system": "ABL1(M351T)-phosphorylated", "conditions": "at 1 μM", "method_in_brief": "as §1"}, "ITK": {"system": "ITK", "conditions": "at 1 μM", "method_in_brief": "as §1"}, "[3]": {"system": "ABL1(H396P)-phosphorylated", "conditions": "at 1 μM", "method_in_brief": "as §1"}, "FLT3-autoinhibited": {"system": "FLT3-autoinhibited", "conditions": "at 1 μM", "method_in_brief": "as §1"}, "PYK2": {"system": "PYK2", "conditions": "at 1 μM", "method_in_brief": "as §1"}, "[4]": {"system": "ABL1(E255K)-phosphorylated", "conditions": "at 1 μM", "method_in_brief": "as §1"}, "FGFR1": {"system": "FGFR1", "conditions": "at 1 μM", "method_in_brief": "as §1"}, "[5]": {"system": "ABL1(T315I)-nonphosphorylated", "conditions": "at 1 μM", "method_in_brief": "as §1"}, "PDGFRA": {"system": "PDGFRA", "conditions": "at 1 μM", "method_in_brief": "as §1"}, "CSF1R-autoinhibited": {"system": "CSF1R-autoinhibited", "conditions": "at 1 μM", "method_in_brief": "as §1"}, "INSRR": {"system": "INSRR", "conditions": "at 1 μM", "method_in_brief": "as §1"}, "FLT3": {"system": "FLT3", "conditions": "at 1 μM", "method_in_brief": "as §1"}, "VEGFR2": {"system": "VEGFR2", "conditions": "at 1 μM", "method_in_brief": "as §1"}, "TRKB": {"system": "TRKB", "conditions": "at 1 μM", "method_in_brief": "as §1"}, "ALK": {"system": "ALK", "conditions": "at 1 μM", "method_in_brief": "as §1"}, "EGFR(L861Q)": {"system": "EGFR(L861Q)", "conditions": "at 1 μM", "method_in_brief": "as §2"}, "EPHA6": {"system": "EPHA6", "conditions": "at 1 μM", "method_in_brief": "as §2"}, "KIT(A829P)": {"system": "KIT(A829P)", "conditions": "at 1 μM", "method_in_brief": "as §1"}, "LTK": {"system": "LTK", "conditions": "at 1 μM", "method_in_brief": "as §1"}, "EPHA7": {"system": "EPHA7", "conditions": "at 1 μM", "method_in_brief": "as §2"}, "FLT3(D835V)": {"system": "FLT3(D835V)", "conditions": "at 1 μM", "method_in_brief": "as §1"}, "[6]": {"system": "TYK2(JH2domain-pseudokinase)", "method_in_brief": "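Dissociation constants came from the amount of kinase captured on the solid support across a test compound concentration series. Captured kinase, T7 phage-fused or HEK-293-made and DNA-tagged, was read by qPCR after a 1 h room-temperature binding step.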"}, "FLT3(D835H)": {"system": "FLT3(D835H)", "conditions": "at 1 μM", "method_in_brief": "as §1"}, "[7]": {"system": "JAK1(JH2domain-pseudokinase)", "method_in_brief": "as §1"}, "ALK(C1156Y)": {"system": "ALK(C1156Y)", "conditions": "at 1 μM", "method_in_brief": "as §1"}, "KIT(L576P)": {"system": "KIT(L576P)", "conditions": "at 1 μM", "method_in_brief": "as §1"}, "EPHA1": {"system": "EPHA1", "conditions": "at 1 μM", "method_in_brief": "as §2"}, "[8]": {"system": "EGFR(L747-S752del, P753S)", "conditions": "at 1 μM", "method_in_brief": "as §1"}, "ERBB2": {"system": "ERBB2", "conditions": "at 1 μM", "method_in_brief": "as §1"}}, "data": [{"smiles": "Cc1cc2c([nH]1)/C=C1\\C(=O)Nc3c(Cl)cc(cc31)-c1cn(C)nc1COC[C@@H](C)N(C)C2=O", "note": "[Cpd. 5, [3a(4)Z,10R]-20-chloro-6,9,10,15-tetramethyl-10,11,13,15-tetrahydro-2H-1,17-(ethanediylidene)pyrazolo[4,3-m]dipyrrolo[3,2-f:3′,4′-i][1,4]oxazacyclopentadecine-3,8(5H,9H)-dione]", "values": [{"measurement": "% Ctrl", "setting": "FRK", "result": 80, "unit": "%"}, {"measurement": "% Ctrl", "setting": "TNK2", "result": 87, "unit": "%"}, {"measurement": "% Ctrl", "setting": "ABL1-nonphosphorylated", "result": 87, "unit": "%"}, {"measurement": "% Ctrl", "setting": "[1]", "result": 74, "unit": "%"}, {"measurement": "% Ctrl", "setting": "RET(V804L)", "result": 84, "unit": "%"}, {"measurement": "% Ctrl", "setting": "EPHA4", "result": 93, "unit": "%"}, {"measurement": "% Ctrl", "setting": "ALK(L1196M)", "result": 86, "unit": "%"}, {"measurement": "% Ctrl", "setting": "MET(M1250T)", "result": 100, "unit": "%"}, {"measurement": "% Ctrl", "setting": "FGR", "result": 93, "unit": "%"}, {"measurement": "% Ctrl", "setting": "BRK", "result": 79, "unit": "%"}, {"measurement": "% Ctrl", "setting": "YES", "result": 86, "unit": "%"}, {"measurement": "% Ctrl", "setting": "[2]", "result": 94, "unit": "%"}, {"measurement": "% Ctrl", "setting": "ITK", "result": 96, "unit": "%"}, {"measurement": "% Ctrl", "setting": "[3]", "result": 80, "unit": "%"}, {"measurement": "% Ctrl", "setting": "FLT3-autoinhibited", "result": 87, "unit": "%"}, {"measurement": "% Ctrl", "setting": "PYK2", "result": 83, "unit": "%"}, {"measurement": "% Ctrl", "setting": "[4]", "result": 79, "unit": "%"}, {"measurement": "% Ctrl", "setting": "FGFR1", "result": 84, "unit": "%"}, {"measurement": "% Ctrl", "setting": "[5]", "result": 100, "unit": "%"}, {"measurement": "% Ctrl", "setting": "PDGFRA", "result": 95, "unit": "%"}, {"measurement": "% Ctrl", "setting": "CSF1R-autoinhibited", "result": 75, "unit": "%"}, {"measurement": "% Ctrl", "setting": "INSRR", "result": 99, "unit": "%"}, {"measurement": "% Ctrl", "setting": "FLT3", "result": 94, "unit": "%"}, {"measurement": "% Ctrl", "setting": "VEGFR2", "result": 92, "unit": "%"}, {"measurement": "% Ctrl", "setting": "TRKB", "result": 100, "unit": "%"}, {"measurement": "% Ctrl", "setting": "ALK", "result": 71, "unit": "%"}, {"measurement": "% Ctrl", "setting": "EGFR(L861Q)", "result": 94, "unit": "%"}, {"measurement": "% Ctrl", "setting": "EPHA6", "result": 91, "unit": "%"}, {"measurement": "% Ctrl", "setting": "KIT(A829P)", "result": 84, "unit": "%"}, {"measurement": "% Ctrl", "setting": "LTK", "result": 93, "unit": "%"}, {"measurement": "% Ctrl", "setting": "EPHA7", "result": 98, "unit": "%"}, {"measurement": "% Ctrl", "setting": "FLT3(D835V)", "result": 89, "unit": "%"}, {"measurement": "% Ctrl", "setting": "[6]; TYK2(JH2domain-pseudokinase), at 1 μM", "result": 0, "unit": "%"}, {"measurement": "Kd", "setting": "[6]; read-out: TYK2(JH2 domain-pseudokinase) Kd", "result": 0.18, "unit": "nM"}, {"measurement": "% Ctrl", "setting": "FLT3(D835H)", "result": 79, "unit": "%"}, {"measurement": "% Ctrl", "setting": "[7]; JAK1(JH2domain-pseudokinase), at 1 μM", "result": 0.85, "unit": "%"}, {"measurement": "Kd", "setting": "[7]; read-out: JAK1(JH2 domain-pseudokinase) Kd", "result": 50, "unit": "nM"}, {"measurement": "% Ctrl", "setting": "ALK(C1156Y)", "result": 90, "unit": "%"}, {"measurement": "% Ctrl", "setting": "KIT(L576P)", "result": 97, "unit": "%"}, {"measurement": "% Ctrl", "setting": "EPHA1", "result": 82, "unit": "%"}, {"measurement": "% Ctrl", "setting": "[8]", "result": 86, "unit": "%"}, {"measurement": "% Ctrl", "setting": "ERBB2", "result": 100, "unit": "%"}]}]}
